Test results from ChEMBL document CHEMBL1201862, “PubChem BioAssay data set” (2004).
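The compound was tested at five concentrations on cells cultured in 96-well plates, with a 48-hour exposure period. GI50: concentration for 50% inhibition of growth.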 Activity calls are given as the source filed them. Rule as the data show it: active = GI50 up to about 1.1 µM and inactive = higher.

What was measured:
Assay in all cases: inhibition of tumour cell growth, NCI panel, 48 h
[1] = test system: DLD-1
[2] = test system: DMS-273
[3] = test system: HOP-18
[4] = test system: KM-20L2
[5] = test system: LXFL 529
[6] = test system: M19-MEL
[7] = test system: RXF 631
[8] = test system: SNB-78
[9] = test system: XF498

Measured: GI50

Cc1ccc(C2=NO[C@@H]3C(=O)N(c4ccc(Cc5ccc(N6C(=O)[C@H]7C(c8ccc(C)cc8)=NO[C@H]7C6=O)cc5)cc4)C(=O)[C@H]23)cc1
inactive: [1] > 100 µM | [2] > 100 µM | [3] > 100 µM | [4] > 100 µM | [5] > 100 µM | [6] > 100 µM | [7] > 100 µM | [8] > 100 µM | [9] > 100 µM
